Experimental data taken from patent EP4603105A1, “PHARMACEUTICAL COMPOSITION CONTAINING CYCLIC COMPOUND HAVING SELECTIVE KRAS INHIBITORY EFFECT AGAINST HRAS AND NRAS” (CHUGAI SEIYAKU KABUSHIKI KAISHA, priority 2022, dated 2024).
pIC50: −log10 of the molar value. Where a SMILES comes first, the peptide text is derived from it. Bridges are numbered along the chain shown (N, C = ends). [ ]: non-standard residue; d: D form. The star is where a group is joined. hPhe(3-Cl-4-CF3) = N[C@@H](CCc1ccc(C(F)(F)F)c(Cl)c1)C(=O)O; NPrPhe(4-CF3) = CCCN[C@@H](Cc1ccc(C(F)(F)F)cc1)C(=O)O; NMeGly(cPent) = CN[C@H](C(=O)O)C1CCCC1; Pro(4,4-F2) = O=C(O)[C@@H]1CC(F)(F)CN1; Hyp = O=C(O)[C@@H]1C[C@@H](O)CN1; NMeL = CN[C@@H](CC(C)C)C(=O)O; Morpholide = C1CN(*)CCO1; Ac5c = NC1(C(=O)O)CCCC1; Aze = O=C(O)[C@@H]1CCN1; Ac4c = NC1(C(=O)O)CCC1; Sar = CNCC(=O)O

How the values were obtained:
[1] = molecular target: GDP-bound NRAS wild-type protein (Homo sapiens, UniProt P01111); assay: Binding to NRAS by surface plasmon resonance (SPR), KD and KD ratio to KRAS; details: ratio of KD for GDP-bound NRAS wild-type protein to KD for KRAS
Outline: (§1)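 Captured GDP-RAS (~100–300 RU) was exposed to increasing compound concentrations, 75 s per step, in running buffer with 10 µM GDP, 10 mM MgCl2 and 4% DMSO at pH 7.4.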

HRAS wild-type protein = HRAS wild-type protein (Homo sapiens, UniProt P01112); assay: Binding to HRAS by surface plasmon resonance (SPR), KD and KD ratio to KRAS; details: ratio of KD for HRAS wild-type protein to KD for KRAS
Outline: as §1

[2] = system: human lung cancer strain NCI-H441; assay type: cell-based
Outline: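 Step one: dispense the test compound in serial DMSO dilutions. Step three: add the reagent and measure […].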

GDP-bound NRAS wild-type protein, sequence (P01111 whole entry): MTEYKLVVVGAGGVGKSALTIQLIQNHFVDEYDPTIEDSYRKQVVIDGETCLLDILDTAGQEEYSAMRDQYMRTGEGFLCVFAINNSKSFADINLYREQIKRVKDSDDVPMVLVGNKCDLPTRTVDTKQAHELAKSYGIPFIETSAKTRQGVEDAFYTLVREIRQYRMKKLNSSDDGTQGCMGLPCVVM
HRAS wild-type protein, sequence (P01112 whole entry): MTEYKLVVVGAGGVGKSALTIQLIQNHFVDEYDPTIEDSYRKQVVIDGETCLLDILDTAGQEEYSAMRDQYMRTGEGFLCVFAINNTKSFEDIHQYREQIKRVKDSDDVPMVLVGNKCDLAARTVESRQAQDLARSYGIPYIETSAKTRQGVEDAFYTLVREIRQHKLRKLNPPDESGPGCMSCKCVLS

Row | SMILES | NRAS /KRAS [1] | HRAS /KRAS (HRAS wild-type protein) | pIC50 [2]
1 | CCCN1C(=O)[C@@H]2CCN2C(=O)CN(C)C(=O)[C@H]([C@@H](C)CC)NC(=O)[C@H](CC(C)C)N(C)C(=O)C[C@@H](C(=O)N2CCOCC2)NC(=O)[C@H](C2CCCC2)N(C)C(=O)C2(CCC2)NC(=O)[C@@H]2CCCN2C(=O)[C@H](CCc2ccc(C(F)(F)F)c(Cl)c2)NC(=O)CN(C)C(=O)[C@@H]1Cc1ccc(C(F)(F)F)cc1 [PP0350] ([NMeL]I[Sar][Aze][NPrPhe(4-CF3)][Sar][hPhe(3-Cl-4-CF3)]P[Ac4c][NMeGly(cPent)]D-Morpholide; lactam N-11) | C (A compound having a KD ratio of 0.1 or more and less than 3 is denoted as C) | B (a compound having 3 or more and less than 10 is denoted as B) | 7.16
2 | CCCN1C(=O)[C@@H]2CCN2C(=O)CN(C)C(=O)[C@H]([C@@H](C)CC)NC(=O)[C@H](CC(C)C)N(C)C(=O)C[C@@H](C(=O)N2CCOCC2)NC(=O)[C@H](C2CCCC2)N(C)C(=O)C2(CCCC2)NC(=O)[C@@H]2CC(F)(F)CN2C(=O)[C@H](CCc2ccc(C(F)(F)F)c(Cl)c2)NC(=O)CN(C)C(=O)[C@@H]1Cc1ccc(C(F)(F)F)cc1 [PP0351] ([NMeL]I[Sar][Aze][NPrPhe(4-CF3)][Sar][hPhe(3-Cl-4-CF3)][Pro(4,4-F2)][Ac5c][NMeGly(cPent)]D-Morpholide; lactam N-11) | C (A compound having a KD ratio of 0.1 or more and less than 3 is denoted as C) | B (a compound having 3 or more and less than 10 is denoted as B) | 7.41
3 | CCCN1C(=O)[C@@H]2CCN2C(=O)CN(C)C(=O)[C@H]([C@@H](C)CC)NC(=O)[C@H](CC(C)C)N(C)C(=O)C[C@@H](C(=O)N2CCOCC2)NC(=O)[C@H](C2CCCC2)N(C)C(=O)C2(CCC2)NC(=O)[C@@H]2CC(F)(F)CN2C(=O)[C@H](CCc2ccc(C(F)(F)F)c(Cl)c2)NC(=O)CN(C)C(=O)[C@@H]1Cc1ccc(C(F)(F)F)cc1 [PP0352] ([NMeL]I[Sar][Aze][NPrPhe(4-CF3)][Sar][hPhe(3-Cl-4-CF3)][Pro(4,4-F2)][Ac4c][NMeGly(cPent)]D-Morpholide; lactam N-11) | C (A compound having a KD ratio of 0.1 or more and less than 3 is denoted as C) | B (a compound having 3 or more and less than 10 is denoted as B) | 7.14
4 | CCCN1C(=O)[C@@H]2CCN2C(=O)CN(C)C(=O)[C@H]([C@@H](C)CC)NC(=O)[C@H](CC(C)C)N(C)C(=O)C[C@@H](C(=O)N2CCOCC2)NC(=O)[C@H](C2CCCC2)N(C)C(=O)C2(CCCC2)NC(=O)[C@@H]2C[C@@H](OCC)CN2C(=O)[C@H](CCc2ccc(C(F)(F)F)c(Cl)c2)NC(=O)CN(C)C(=O)[C@@H]1Cc1ccc(C(F)(F)F)cc1 [PP0353] ([NMeL]I[Sar][Aze][NPrPhe(4-CF3)][Sar][hPhe(3-Cl-4-CF3)][Hyp](Et)[Ac5c][NMeGly(cPent)]D-Morpholide; lactam N-11) | C (A compound having a KD ratio of 0.1 or more and less than 3 is denoted as C) | B (a compound having 3 or more and less than 10 is denoted as B) | 7.33
5 | CCCN1C(=O)[C@@H]2CCN2C(=O)CN(C)C(=O)[C@H]([C@@H](C)CC)NC(=O)[C@H](CC(C)C)N(C)C(=O)C[C@@H](C(=O)N2CCOCC2)NC(=O)[C@H](C2CCCC2)N(C)C(=O)C2(CCC2)NC(=O)[C@@H]2C[C@@H](OCC)CN2C(=O)[C@H](CCc2ccc(C(F)(F)F)c(Cl)c2)NC(=O)CN(C)C(=O)[C@@H]1Cc1ccc(C(F)(F)F)cc1 [PP0354] ([NMeL]I[Sar][Aze][NPrPhe(4-CF3)][Sar][hPhe(3-Cl-4-CF3)][Hyp](Et)[Ac4c][NMeGly(cPent)]D-Morpholide; lactam N-11) | C (A compound having a KD ratio of 0.1 or more and less than 3 is denoted as C) | B (a compound having 3 or more and less than 10 is denoted as B) | 7.61
6 | CCCN1C(=O)CN(C)C(=O)CN(C)C(=O)[C@H]([C@@H](C)CC)NC(=O)[C@H](CC(C)C)N(C)C(=O)C[C@@H](C(=O)N(C)C)NC(=O)[C@H](C2CCCC2)N(C)C(=O)C2(CCCC2)NC(=O)[C@@H]2CCCN2C(=O)[C@H](CCc2ccc(C(F)(F)F)c(Cl)c2)NC(=O)CN(C)C(=O)[C@@H]1Cc1ccc(C(F)(F)F)cc1 [PP0355] ([NMeL]I[Sar][Sar][NPrPhe(4-CF3)][Sar][hPhe(3-Cl-4-CF3)]P[Ac5c][NMeGly(cPent)]D-NMe2; lactam N-11) | B (a compound having 3 or more and less than 10 is denoted as B) | B (a compound having 3 or more and less than 10 is denoted as B) | 7.32
7 | CCCN1C(=O)CN(C)C(=O)CN(C)C(=O)[C@H]([C@@H](C)CC)NC(=O)[C@H](CC(C)C)N(C)C(=O)C[C@@H](C(=O)N(C)C)NC(=O)[C@H](C2CCCC2)N(C)C(=O)C2(CCC2)NC(=O)[C@@H]2CCCN2C(=O)[C@H](CCc2ccc(C(F)(F)F)c(Cl)c2)NC(=O)CN(C)C(=O)[C@@H]1Cc1ccc(C(F)(F)F)cc1 [PP0356] ([NMeL]I[Sar][Sar][NPrPhe(4-CF3)][Sar][hPhe(3-Cl-4-CF3)]P[Ac4c][NMeGly(cPent)]D-NMe2; lactam N-11) | B (a compound having 3 or more and less than 10 is denoted as B) | B (a compound having 3 or more and less than 10 is denoted as B) | 7.00
8 | CCCN1C(=O)CN(C)C(=O)CN(C)C(=O)[C@H]([C@@H](C)CC)NC(=O)[C@H](CC(C)C)N(C)C(=O)C[C@@H](C(=O)N(C)C)NC(=O)[C@H](C2CCCC2)N(C)C(=O)C2(CCCC2)NC(=O)[C@@H]2CC(F)(F)CN2C(=O)[C@H](CCc2ccc(C(F)(F)F)c(Cl)c2)NC(=O)CN(C)C(=O)[C@@H]1Cc1ccc(C(F)(F)F)cc1 [PP0357] ([NMeL]I[Sar][Sar][NPrPhe(4-CF3)][Sar][hPhe(3-Cl-4-CF3)][Pro(4,4-F2)][Ac5c][NMeGly(cPent)]D-NMe2; lactam N-11) | B (a compound having 3 or more and less than 10 is denoted as B) | B (a compound having 3 or more and less than 10 is denoted as B) | 7.40
9 | CCCN1C(=O)CN(C)C(=O)CN(C)C(=O)[C@H]([C@@H](C)CC)NC(=O)[C@H](CC(C)C)N(C)C(=O)C[C@@H](C(=O)N(C)C)NC(=O)[C@H](C2CCCC2)N(C)C(=O)C2(CCC2)NC(=O)[C@@H]2CC(F)(F)CN2C(=O)[C@H](CCc2ccc(C(F)(F)F)c(Cl)c2)NC(=O)CN(C)C(=O)[C@@H]1Cc1ccc(C(F)(F)F)cc1 [PP0358] ([NMeL]I[Sar][Sar][NPrPhe(4-CF3)][Sar][hPhe(3-Cl-4-CF3)][Pro(4,4-F2)][Ac4c][NMeGly(cPent)]D-NMe2; lactam N-11) | B (a compound having 3 or more and less than 10 is denoted as B) | C (A compound having a KD ratio of 0.1 or more and less than 3 is denoted as C) | 7.46
10 | CCCN1C(=O)CN(C)C(=O)CN(C)C(=O)[C@H]([C@@H](C)CC)NC(=O)[C@H](CC(C)C)N(C)C(=O)C[C@@H](C(=O)N(C)C)NC(=O)[C@H](C2CCCC2)N(C)C(=O)C2(CCCC2)NC(=O)[C@@H]2C[C@@H](OCC)CN2C(=O)[C@H](CCc2ccc(C(F)(F)F)c(Cl)c2)NC(=O)CN(C)C(=O)[C@@H]1Cc1ccc(C(F)(F)F)cc1 [PP0359] ([NMeL]I[Sar][Sar][NPrPhe(4-CF3)][Sar][hPhe(3-Cl-4-CF3)][Hyp](Et)[Ac5c][NMeGly(cPent)]D-NMe2; lactam N-11) | B (a compound having 3 or more and less than 10 is denoted as B) | B (a compound having 3 or more and less than 10 is denoted as B) | 7.48
